From patent publication US20250215039A1, “NUCLEOSIDES FOR TREATING CANCER” (PRIMEFOUR THERAPEUTICS, INC., priority 2022, published 2025)
Where two headings read alike, the source gives them in different places.

What was measured:
cancer cell lines = assay: Cancer cell proliferation activity (CellTiterGlo, 72 h); format: cell-based; conditions: 72 h, 72 h, read-out: IC50 cell proliferation
Outline: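 Cells seeded overnight at 37 °C, then dosed with compound at 0.1% final DMSO and incubated 72 h at 37 °C (5% or 10% CO2 by medium).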

[1] = target: human cytidine deaminase (CDA) (Homo sapiens, UniProt P32320); assay: Metabolism by human cytidine deaminase (CDA), substrate absorbance at 290 nm
human cytidine deaminase (CDA), sequence (P32320 whole entry): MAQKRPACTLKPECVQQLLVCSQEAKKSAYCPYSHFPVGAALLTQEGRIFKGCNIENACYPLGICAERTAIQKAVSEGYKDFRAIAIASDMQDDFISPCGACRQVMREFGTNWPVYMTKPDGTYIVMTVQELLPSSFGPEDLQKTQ

- IC50 (cancer cell lines; 5637 (bladder)): 3.87 µM
- IC50 (cancer cell lines; CLS439 (bladder)): > 50 µM
- IC50 (cancer cell lines; HS729 (muscle)): 4.74 µM
- IC50 (cancer cell lines; J82 (bladder)): > 50 µM
- IC50 (cancer cell lines; JAR (placenta)): > 50 µM
- IC50 (cancer cell lines; MT3 (breast)): 1.08 µM
- IC50 (cancer cell lines; PANCI (pancreas)): > 50 µM
- IC50 (cancer cell lines; PC3 (prostate)): 1.46 µM
- IC50 (cancer cell lines; RD (muscle)): > 50 µM
- IC50 (cancer cell lines; T24 (bladder)): 3.21 µM
- IC50 (cancer cell lines; Homo sapiens, 22Rv1, 72 h, 22RV1 (prostate)): > 50 µM
- IC50 (cancer cell lines; Homo sapiens, 786-0, 72 h, 786O (kidney)): > 50 µM
- IC50 (cancer cell lines; Homo sapiens, A204, 72 h, A204 (muscle)): 0.17 µM
- IC50 (cancer cell lines; Homo sapiens, A549, 72 h, A549 (lung)): 2.9 µM
- IC50 (cancer cell lines; Homo sapiens, A673, 72 h, A673 (bone)): > 50 µM
- IC50 (cancer cell lines; Homo sapiens, A2780, 72 h, A2780 (ovary)): 5.39 µM
- IC50 (cancer cell lines; Homo sapiens, A-375, 72 h, A375 (skin)): > 50 µM
- IC50 (cancer cell lines; Homo sapiens, A-431, 72 h, A431 (skin)): 3.8 µM
- IC50 (cancer cell lines; Homo sapiens, ACHN, ACHN (kidney)): 2.85 µM
- IC50 (cancer cell lines; Homo sapiens, ASPC1, 72 h, ASPC1 (pancreas)): > 50 µM
- IC50 (cancer cell lines; Homo sapiens, BT-20, 72 h, BT20 (breast)): > 50 µM
- IC50 (cancer cell lines; Homo sapiens, BXPC-3, 72 h, BXPC3 (pancreas)): > 50 µM
- IC50 (cancer cell lines; Homo sapiens, C-33-A, C33A (endometrial)): 2.08 µM
- IC50 (cancer cell lines; Homo sapiens, CAKI-1, 72 h, CAKI1 (kidney)): 1.07 µM
- IC50 (cancer cell lines; Homo sapiens, COLO 205, 72 h, COLO205 (colon)): 3.03 µM
- IC50 (cancer cell lines; Homo sapiens, COLO-678, 72 h, COLO678 (colon)): > 50 µM
- IC50 (cancer cell lines; Homo sapiens, Ca-Ski, CASKI (endometrial)): > 50 µM
- IC50 (cancer cell lines; Homo sapiens, Caco-2, 72 h, CACO2 (colon)): > 50 µM
- IC50 (cancer cell lines; Homo sapiens, Calu-6, 72 h, CALU6 (lung)): 5.25 µM
- IC50 (cancer cell lines; Homo sapiens, DLD-1, 72 h, DLD1 (colon)): > 50 µM
- IC50 (cancer cell lines; Homo sapiens, DU-145, 72 h, DU145 (prostate)): 3.18 µM
- IC50 (cancer cell lines; Homo sapiens, EFO-21, 72 h, EFO21 (ovary)): > 50 µM
- IC50 (cancer cell lines; Homo sapiens, EJ-28, 72 h, EJ28 (bladder)): > 50 µM
- IC50 (cancer cell lines; Homo sapiens, Granta-519, 72 h, GRANTA-519 (hematological)): 1.24 µM
- IC50 (cancer cell lines; Homo sapiens, HCT-15, 72 h, HCT15 (colon)): 3.1 µM
- IC50 (cancer cell lines; Homo sapiens, HCT-116, 72 h, HCT116 (colon)): 3.28 µM
- IC50 (cancer cell lines; Homo sapiens, HEK293, 72 h, HEK293 (kidney)): > 50 µM
- IC50 (cancer cell lines; Homo sapiens, HL-60, 72 h, HL-60 (hematological)): > 50 µM
- IC50 (cancer cell lines; Homo sapiens, HT-29, 72 h, HT29 (colon)): > 50 µM
- IC50 (cancer cell lines; Homo sapiens, HT-1080, 72 h, HT1080 (connective tissue)): 4.73 µM
- IC50 (cancer cell lines; Homo sapiens, HeLa, HELA (endometrial)): > 50 µM
- IC50 (cancer cell lines; Homo sapiens, HepG2, 72 h, HEPG2 (liver)): > 50 µM
- IC50 (cancer cell lines; Homo sapiens, Hs-578T, HS578T (breast)): > 50 µM
- IC50 (cancer cell lines; Homo sapiens, IGROV-1, 72 h, IGROV1 (ovary)): 4.31 µM
- IC50 (cancer cell lines; Homo sapiens, IMR-90, 72 h, IMR90 (lung)): > 50 µM
- IC50 (cancer cell lines; Homo sapiens, JEG-3, 72 h, JEG3 (placenta)): > 50 µM
- IC50 (cancer cell lines; Homo sapiens, JIMT-1, 72 h, JIMT1 (breast)): 2.23 µM
- IC50 (cancer cell lines; Homo sapiens, K562, 72 h, K-562 (hematological)): > 50 µM
- IC50 (cancer cell lines; Homo sapiens, Kasumi 1, 72 h, KASUMI-1 (hematological)): 2.23 µM
- IC50 (cancer cell lines; Homo sapiens, L-363, 72 h, L-363 (hematological)): > 50 µM
- IC50 (cancer cell lines; Homo sapiens, LoVo, LOVO (colon)): 2.74 µM
- IC50 (cancer cell lines; Homo sapiens, MCF7, 72 h, MCF7 (breast)): > 50 µM
- IC50 (cancer cell lines; Homo sapiens, MDA-MB-231, 72 h, MDAMB231 (breast)): 2.23 µM
- IC50 (cancer cell lines; Homo sapiens, MDA-MB-435, 72 h, MDAMB435 (skin)): 4.7 µM
- IC50 (cancer cell lines; Homo sapiens, MDA-MB-436, 72 h, MDAMB436 (breast)): > 50 µM
- IC50 (cancer cell lines; Homo sapiens, MDA-MB-468, 72 h, MDAMB468 (breast)): > 50 µM
- IC50 (cancer cell lines; Homo sapiens, MG-63, 72 h, MG63 (bone)): > 50 µM
- IC50 (cancer cell lines; Homo sapiens, MHH-ES-1, 72 h, MHHES1 (bone)): > 50 µM
- IC50 (cancer cell lines; Homo sapiens, MIA PaCa-2, 72 h, MIAPACA2 (pancreas)): > 50 µM
- IC50 (cancer cell lines; Homo sapiens, MINO, MINO (hematological)): 0.43 µM
- IC50 (cancer cell lines; Homo sapiens, MV4-11, 72 h, MV4-11 (hematological)): 3.8 µM
- IC50 (cancer cell lines; Homo sapiens, NCI-H23, 72 h, NCI-H23 (lung)): > 50 µM
- IC50 (cancer cell lines; Homo sapiens, NCI-H82, 72 h, NCIH82 (lung)): > 50 µM
- IC50 (cancer cell lines; Homo sapiens, NCI-H292, 72 h, NCIH292 (lung)): > 50 µM
- IC50 (cancer cell lines; Homo sapiens, NCI-H460, 72 h, NCIH460 (lung)): 5.68 µM
- IC50 (cancer cell lines; Homo sapiens, OVCAR-3, 72 h, OVCAR3 (ovary)): 2.57 µM
- IC50 (cancer cell lines; Homo sapiens, OVCAR-4, 72 h, OVCAR4 (ovary)): > 50 µM
- IC50 (cancer cell lines; Homo sapiens, PLC-PRF-5, 72 h, PLCPRF5 (liver)): > 50 µM
- IC50 (cancer cell lines; Homo sapiens, Panc1005, 72 h, PANC1005 (pancreas)): > 50 µM
- IC50 (cancer cell lines; Homo sapiens, Ramos, RAMOS (hematological)): 2.69 µM
- IC50 (cancer cell lines; Homo sapiens, SAOS-2, 72 h, SAOS2 (bone)): 1.49 µM
- IC50 (cancer cell lines; Homo sapiens, SF-268, 72 h, SF268 (brain)): 3.8 µM
- IC50 (cancer cell lines; Homo sapiens, SF-295, 72 h, SF295 (brain)): > 50 µM
- IC50 (cancer cell lines; Homo sapiens, SK-BR-3, 72 h, SKBR3 (breast)): 4.56 µM
- IC50 (cancer cell lines; Homo sapiens, SK-HEP1, 72 h, SKHEP1 (liver)): 2.54 µM
- IC50 (cancer cell lines; Homo sapiens, SK-LMS-1, 72 h, SKLMS1 (uterus)): > 50 µM
- IC50 (cancer cell lines; Homo sapiens, SK-MEL-5, 72 h, SKMEL5 (skin; SKMELS [sic] in Table 9E)): > 50 µM
- IC50 (cancer cell lines; Homo sapiens, SK-MEL-28, 72 h, SKMEL28 (skin)): > 50 µM
- IC50 (cancer cell lines; Homo sapiens, SK-N-AS, SKNAS (brain)): > 50 µM
- IC50 (cancer cell lines; Homo sapiens, SK-N-SH, SKNSH (brain)): > 50 µM
- IC50 (cancer cell lines; Homo sapiens, SK-OV-3, 72 h, SKOV3 (ovary)): > 50 µM
- IC50 (cancer cell lines; Homo sapiens, SNB-75, 72 h, SNB75 (brain)): > 50 µM
- IC50 (cancer cell lines; Homo sapiens, SU-DHL10, 72 h, SU-DHL-10 (hematological)): 2.73 µM
- IC50 (cancer cell lines; Homo sapiens, SU-DHL-6, 72 h, SU-DHL-6 (hematological)): 2.87 µM
- IC50 (cancer cell lines; Homo sapiens, SW-620, 72 h, SW620 (colon)): 4.6 µM
- IC50 (cancer cell lines; Homo sapiens, TE-671, 72 h, TE671 (muscle)): > 50 µM
- IC50 (cancer cell lines; Homo sapiens, THP-1, 72 h, THP-1 (hematological)): 3.44 µM
- IC50 (cancer cell lines; Homo sapiens, U2OS, U20S (bone; U2OS in Table 9E)): > 50 µM
- IC50 (cancer cell lines; Homo sapiens, U-87 MG, U87MG (brain)): 2.91 µM
- IC50 (cancer cell lines; Homo sapiens, UMUC3, 72 h, UMUC3 (bladder)): > 50 µM
- IC50 (cancer cell lines; Homo sapiens, UO-31, 72 h, UO31 (kidney)): 8.13 µM
- IC50 (cancer cell lines; Homo sapiens, WSU-NHL, WSU-NHL (hematological)): 1.67 µM
- IC50 (cancer cell lines; NCI-H358M, NCIH358M (lung)): 1.04 µM
- IC50 (cancer cell lines; PBMC, PBMC (hematological)): 2.61 µM
- IC50 (cancer cell lines; RD-ES, RDES (bone)): > 50 µM
- metabolism (deamination) by human CDA (line graph) ([1]; 12 nM CDA, 50 and 200 uM substrate, 37° C., pH 7.5, figure legends FIG. 4-9): not metabolized
- substrate conversion by CDA (Inactive) ([1]; rate of substrate conversion at 200 μM, could not be fitted): Inactive
Structure (SMILES): C[C@]1(CO)O[C@@H](n2ccc(N)nc2=O)C(F)(F)[C@@H]1O [Cpd. No. 190, 4-amino-1-((2R,4R,5R)-3,3-difluoro-4-hydroxy-5-(hydroxymethyl)-5-methyltetrahydrofuran-2-yl)pyrimidin-2(1H)-one]
